Results as given in patent publication US20180228801A1, “Method for Enhancing Learning Ability and Memory of Patients with Alzheimer's Disease using Mocetinostat” (National Taiwan Normal University, priority 2017, published 2018).

Assays:
Type in all cases: in vivo, mice (C57BL/6J)
[1] = tested on: pCDK; assay: Western blot, pCDK; conditions: hippocampus
Experimental: (§1) Further, in some embodiments of the present invention, C57BL/6J strain male mice (12 week old) are used as a subject in need. After mice are allowed to adapt to the environment for 6 days, mice are anesthetized with Avertin (0.4 g/kg; purchased from Sigma). The mice are fixed on a stereotactic apparatus for operation, followed by injecting oligomeric Aβ25-35 (10 nM, 3 μL) into bilateral hippocampal CA1 (AP: […] relative to the bregma; ML: ±[…] relative to the midline; DV: […] relative to the skull) on day 7. MGCD0103 and equal volume of vehicle (saline) are intraperitoneal (i.p.) injected once a day from day 8, the day after said operation, for 29 days. On day 24, the Open Field Test is performed; on day 26, the EPM is performed; on day 28, the Y-maze is performed; on days 30 to 36, MWM is performed; and on day 37, mice are euthanized for pathological analysis.

[2] = tested on: IDE (Aβ degrading enzyme); assay: Western blot, IDE; conditions: Aβ25-35 mice, hippocampus
Experimental: as §1

[3] = tested on: cholinergic neurons in medial septum/diagonal band (MS/DB); assay: Immunohistochemical staining, cholinergic neurons (ChAT); conditions: saline-injected mice; Mean±SEM
Experimental: as §1
(§2) The inventor collects the brain tissue by perfusion followed by fixing and dehydrating, then, 30 μm frozen sections are obtained by a freezing microtome (CMS3050S, Leica). […] After that, avidin-biotin complex (ABC) is detected 1 hour after staining. […] After all sections have been stained, they are then fixed on a slide, dried, dehydrated, mounted, and photographed for quantity (performed by Image Pro Plus, Meida Cyberetics, USA). […]

[4] = tested on: activated microglia; assay: Immunohistochemical staining, activated microglia in hippocampus; conditions: Aβ25-35 mice
Experimental: as §1
(§3) The inventor collects the brain tissue by perfusion followed by fixing and dehydrating, then, 30 μm frozen sections are obtained by a freezing microtome (CMS3050S, Leica). […] After that, avidin-biotin complex (ABC) is detected 1 hour after staining. […] After all sections have been stained, they are then fixed on a slide, dried, dehydrated, mounted, and photographed for quantity (performed by Image Pro Plus, Meida Cyberetics, USA).

[5] = tested on: Tau protein at the Ser-202 site; assay: Immunohistochemical staining, pS202Tau; conditions: Aβ25-35 mice
Experimental: as §1, §3

[6] = tested on: mice with oligomeric Aβ25-35 or saline injected into hippocampal CA1; assay: Morris Water Maze memory test
Experimental: as §1
MWM is a test for observing spatial learning and memory of mice by placing a platform in a wide pool. […] The behavior of finding the platform relates to a complex memory process within the brain, including 1) collecting the visual information (such as shape information of rectangles, circles and triangles) with respect to spatial positioning, and 2) processing, sorting, memorizing, fixing and recalling said information. In particular, the mice are placed in a pool filled with milky white non-toxic advertising pigment (used to make the water become opaque to hide the platform so that the mice may not know the position of the platform at the beginning), and are allowed to explore in search of the platform (which is fixed in a predetermined quadrant) underwater. The test is split into several phases as follows: 1) exploration phase: Place the mouse in the water and leave it there for 1 minute. If the mouse cannot find the platform in time, then move the mouse to the platform and leave there for 20 seconds. Then, place the mouse at a dry location and allow to rest until the next experiment; 2) acceptance phase: place the mouse into the water maze at four specific positions in turn in order to test whether the mouse can find the platform or not. Such training is repeated four times a day and continued for 4 days (each mouse is trained a total of 16 times). After 4 days of training, the learning ability of the mouse is measured in testing. After 24 hours of last testing trial, platform was removed and the mouse to freely swim in the pool and observe whether the mouse remembers the position of the platform or not (long-term spatial memory test). The swimming path is recorded by a CCD camera and analyzed with an image tracking system (EthoVision-XT).

[7] = tested on: synaptophysin; assay: Western blot, synaptophysin; conditions: Aβ25-35 mice, hippocampus
Experimental: as §1

[8] = tested on: adrenergic neurons in locus coeruleus (LC); assay: Immunohistochemical staining, adrenergic neurons (TH); conditions: saline-injected mice; Mean±SEM
Experimental: as §1, §2

[9] = tested on: BACE1 (Aβ forming enzyme); assay: Western blot, BACE1; conditions: Aβ25-35 mice, hippocampus
Experimental: as §1

[10] = tested on: pERK; assay: Western blot, pERK; conditions: hippocampus
Experimental: as §1

[11] = tested on: NEP (Aβ degrading enzyme); assay: Western blot, NEP; conditions: hippocampus
Experimental: as §1

[12] = tested on: astrocytes; assay: Immunohistochemical staining, astrocytes in hippocampus; conditions: Aβ25-35 mice
Experimental: as §1, §3

[13] = tested on: serotonergic neurons in Raphe nucleus; assay: Immunohistochemical staining, serotonergic neurons (5HT); conditions: saline-injected mice; Mean±SEM
Experimental: as §1, §2

[14] = tested on: acetylated tissue proteins H3; assay: Western blot, acetylated H3; conditions: chronic i.p. treatment, hippocampus
Experimental: as §1

[15] = saline-injected (normal) mice, high dose 0.5 mg/kg i.p.
[16] = saline-injected (normal) mice, low dose 0.01 mg/kg i.p.

time required to reach the platform, testing on day 5 ([6]; saline-injected (normal) mice treated with MGCD0103, dose not stated): significantly increased
learning curve, time required to reach the platform over 4 training days [6, 15]: does not significantly decrease
time spent at the target quadrant after removing the platform (long-term memory) [6, 15]: significantly decreased
learning curve, time required to reach the platform over 4 training days [6, 16]: does not significantly decrease
time spent at the target quadrant after removing the platform (long-term memory) [6, 16]: significantly decreased
Compound: Nc1ccccc1NC(=O)c1ccc(CNc2nccc(-c3cccnc3)n2)cc1 [MGCD0103, N-(2-Aminophenyl)-4-[[(4-pyridin-3-ylpyrimidin-2-yl)amino]methyl] benzamide]
expression of pCDK [1]: do not show difference
expression of IDE protein [2]: significantly increased
ChAT, numbers of cholinergic neurons [3]: 52.75 ± 8.27
numbers of activated microglia [4]: significantly decrease
pS202Tau ([5]; BLA region): significantly decreased
pS202Tau ([5]; hippocampal CA1): significantly decreased
learning curve, time required to reach the platform over 4 training days ([6]; Aβ25-35 mice, high dose 0.5 mg/kg i.p.): reduced time required to reach the platform
time required to reach the platform, testing on day 5 ([6]; Aβ25-35 mice, high dose 0.5 mg/kg i.p., vs Aβ25-35 alone): significantly less
time spent at the target quadrant after removing the platform (long-term memory) ([6]; Aβ25-35 mice, high dose 0.5 mg/kg i.p., vs Aβ25-35 group without treatment): significantly increased
learning curve, time required to reach the platform over 4 training days ([6]; Aβ25-35 mice, low dose 0.01 mg/kg i.p.): reduced time required to reach the platform
time required to reach the platform, testing on day 5 ([6]; Aβ25-35 mice, low dose 0.01 mg/kg i.p., vs Aβ25-35 alone): significantly less
time spent at the target quadrant after removing the platform (long-term memory) ([6]; Aβ25-35 mice, low dose 0.01 mg/kg i.p., vs Aβ25-35 group without treatment): significantly increased
swimming velocity ([6]; all groups, low and high dose, saline or Aβ25-35 mice): same velocity
expression of synaptophysin [7]: significantly increased
TH, numbers of adrenergic neurons [8]: 44.58 ± 2.05
expression of BACE1 [9]: does not show a significant difference
expression of pERK [10]: do not show difference
expression of NEP [11]: do not have significant difference
numbers of astrocytes [12]: significantly decrease
5HT, numbers of serotonergic neurons [13]: 21.43 ± 1.32
acetylation level of tissue proteins H3 [14]: significantly improve
